Measured values reported in patent US20240254103A9, “NOVEL PYRIMIDINE DERIVATIVE, AND COMPOSITION FOR PREVENTING OR TREATING NEURODEGENERATIVE DISEASES AND CANCER, COMPRISING SAME” (WHAN IN PHARMACEUTICAL CO., LTD., priority 2020, published 2024).

Target: T1, wild-type LRRK2 (Homo sapiens, UniProt Q5S007)
T1 construct: DNA tag for qPCR detection (not a peptide; the protein part that carries it is not described); made in house; host or cells: HEK 293 cells (the same paragraph also describes T7 phage grown in E. coli BL21)
Assay: Inhibitory activity against LRRK2: competition binding to ligand-affinity beads, DNA-tagged kinase quantitated by qPCR
Conditions: % of ctrl; for remaining binding at 0.01 µM: 10 nM compound, read-out: LRRK2(WT) Remaining kinase activity(%) at 10 nM; for remaining binding at 0.05 µM: 50 nM compound, read-out: LRRK2(WT) Remaining kinase activity(%) at 50 nM
Procedure: Representative compounds synthesized in Example 1 were assayed for inhibitory activity against wild-type LRRK2 and mutant LRRK2 (G2019S), and the results are summarized in Tables 2 and 3. In brief, a T7 phase strain carrying the wild-type kinase consisting of amino acid residues from H970 to E2527 of human-derived LRRK2 (Accession no. NP_940980.3) or a T7 phase strain carrying the G2019S mutation kinase was infected into E. coli strain BL21 which was then grown until log phase. After infection with T7 phases (multiplicity of infection=0.4), the cells were cultured at 32° C. for 90-150 minutes while shaking. Then, E. coli lysates were centrifuged (6,000×g) and the supernatant was filtered through a 0.2-μm filter. The kinases were produced in HEK 293 cells. In this regard, DNA was tagged to obtain DNA-tagged kinases for qPCR detection. For use in analyzing the kinases, affinity resins were prepared by treating streptavidin-coated magnetic beads with biotinylated small molecule ligands at room temperature for 30 minutes. Then, the liganded beads were blocked with an excess of biotin and washed with a blocking buffer (SeaBlock (Pierce), 1% BSA, 0.05% Tween 20, 1 mM DTT) to remove unbound ligands and thus to reduce the binding of non-specific phages. […] After one hour of incubation, the affinity beads were washed with a wash buffer (1×PBS, 0.05% Tween 20), resuspended in an elution buffer (1×PBS, 0.05% Tween 20, 0.5 μM non-biotinylated affinity ligand), and incubated at room temperature for 30 minutes while shaking. Afterwards, concentrations of wild-type LRRK2 and mutant LRRK2 (G2019S) in the eluted samples were quantitated by qPCR. Activity values are expressed as percentages relative to the control (% of ctrl). The compounds used in the activity assay were prepared into 40× stocks in 100% DMSO. The stocks were directly diluted during analysis procedures.
Table 2 includes inhibitory activities of the representative compounds of the present disclosure at 100 nM against wild-type LRRK2 and mutant LRRK2 (G2019S) while Table 3 includes inhibitory activities of the representative compounds at 10 nM and 50 nM against wild-type LRRK2. (+++ less than 10%; ++ less than 30%; + less than 50%; −50% or higher)

T1 sequence (Q5S007 970-2527): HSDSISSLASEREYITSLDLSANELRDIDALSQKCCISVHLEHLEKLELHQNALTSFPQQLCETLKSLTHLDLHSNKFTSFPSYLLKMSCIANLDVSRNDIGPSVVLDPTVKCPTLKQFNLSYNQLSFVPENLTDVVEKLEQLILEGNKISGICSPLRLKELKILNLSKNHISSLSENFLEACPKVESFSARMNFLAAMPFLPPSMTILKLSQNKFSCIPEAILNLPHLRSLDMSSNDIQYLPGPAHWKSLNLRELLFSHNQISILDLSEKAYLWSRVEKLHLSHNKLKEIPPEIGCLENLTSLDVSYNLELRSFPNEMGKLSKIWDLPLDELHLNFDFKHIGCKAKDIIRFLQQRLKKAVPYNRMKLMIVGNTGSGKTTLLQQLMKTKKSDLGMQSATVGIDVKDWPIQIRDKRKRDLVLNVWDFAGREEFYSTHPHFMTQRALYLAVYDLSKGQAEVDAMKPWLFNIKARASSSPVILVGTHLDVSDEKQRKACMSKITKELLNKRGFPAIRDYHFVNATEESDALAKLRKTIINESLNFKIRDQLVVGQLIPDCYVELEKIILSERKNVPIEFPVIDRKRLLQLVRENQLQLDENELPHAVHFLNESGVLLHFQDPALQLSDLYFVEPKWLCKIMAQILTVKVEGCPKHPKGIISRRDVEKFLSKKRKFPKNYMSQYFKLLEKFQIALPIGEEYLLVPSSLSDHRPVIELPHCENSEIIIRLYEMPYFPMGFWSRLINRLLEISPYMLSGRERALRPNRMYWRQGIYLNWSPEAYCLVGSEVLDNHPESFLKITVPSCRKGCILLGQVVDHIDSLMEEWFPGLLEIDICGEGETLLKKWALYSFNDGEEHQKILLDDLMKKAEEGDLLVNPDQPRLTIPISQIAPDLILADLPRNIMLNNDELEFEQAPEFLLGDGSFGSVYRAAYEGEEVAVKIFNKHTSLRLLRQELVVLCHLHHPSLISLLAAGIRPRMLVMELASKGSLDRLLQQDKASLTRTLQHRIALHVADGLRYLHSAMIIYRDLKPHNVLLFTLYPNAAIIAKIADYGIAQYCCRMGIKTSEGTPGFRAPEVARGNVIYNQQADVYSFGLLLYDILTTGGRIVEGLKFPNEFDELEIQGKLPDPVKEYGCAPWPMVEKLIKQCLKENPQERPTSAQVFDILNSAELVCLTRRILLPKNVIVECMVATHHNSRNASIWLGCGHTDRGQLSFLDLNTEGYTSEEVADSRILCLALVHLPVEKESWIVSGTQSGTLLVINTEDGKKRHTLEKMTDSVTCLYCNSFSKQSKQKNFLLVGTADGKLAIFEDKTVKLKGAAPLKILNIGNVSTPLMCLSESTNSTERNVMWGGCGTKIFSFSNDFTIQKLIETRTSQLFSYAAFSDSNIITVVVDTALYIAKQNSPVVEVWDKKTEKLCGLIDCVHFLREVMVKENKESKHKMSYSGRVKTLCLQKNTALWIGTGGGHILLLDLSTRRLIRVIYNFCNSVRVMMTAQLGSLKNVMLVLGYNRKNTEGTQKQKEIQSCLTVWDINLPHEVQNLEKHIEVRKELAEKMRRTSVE

Row | remaining binding at 0.01 µM | remaining binding at 0.05 µM | SMILES
1 | < 50% | < 10% | COc1cc(C(=O)NC2CCN(C)CC2)ccc1Nc1ncc(Cl)c(-c2cnn(C(C)C)c2)n1 [Compound 60, 4-((5-chloro-4-(1-isopropyl-1H-pyrazol-4-yl)pyrimidin-2-yl)amino)-3-methoxy-N-(1-methylpiperidin-4-yl)benzamide]
2 | < 50% | < 30% | COc1cc(C(=O)N2CCN(C)CC2)ccc1Nc1ncc(Cl)c(-c2cnn(C)c2)n1 [Compound 61, (4-((5-chloro-4-(1-methyl-1H-pyrazol-4-yl)pyrimidin-2-yl)amino)-3-methoxyphenyl)(4-methylpiperazin-1-yl)methanone]
3 | < 30% | < 10% | COc1cc(C(=O)N2CCN(C)CC2)ccc1Nc1ncc(Cl)c(-c2cnn(C(C)C)c2)n1 [Compound 62, (4-((5-chloro-4-(1-isopropyl-1H-pyrazol-4-yl)pyrimidin-2-yl)amino)-3-methoxyphenyl)(4-methylpiperazin-1-yl)methanone]
4 | < 30% | < 10% | COc1cc(C(=O)N2CCN(C(C)C)CC2)ccc1Nc1ncc(Cl)c(-c2cnn(C(C)C)c2)n1 [Compound 64, (4-((5-chloro-4-(1-isopropyl-1H-pyrazol-4-yl)pyrimidin-2-yl)amino)-3-methoxyphenyl)(4-isopropylpiperazin-1-yl)methanone]
5 | < 50% | < 30% | COc1cc(C(=O)N2CCC(C(C)(C)O)CC2)ccc1Nc1ncc(Cl)c(-c2cnn(C(C)C)c2)n1 [Compound 70, (4-((5-chloro-4-(1-isopropyl-1H-pyrazol-4-yl)pyrimidin-2-yl)amino)-3-methoxyphenyl)(4-(2-hydroxypropan-2-yl)piperidin-1-yl)methanone]
6 | < 50% | < 30% | COc1cc(C(=O)N2CCC3(CC2)COC3)ccc1Nc1ncc(Cl)c(-c2cnn(C(C)C)c2)n1 [Compound 71, (4-((5-chloro-4-(1-isopropyl-1H-pyrazol-4-yl)pyrimidin-2-yl)amino)-3-methoxyphenyl)(2-oxa-7-azaspiro[3.5]nonan-7-yl)methanone]
7 | < 50% | < 30% | COc1cc(C(=O)N2CC(N3CCOCC3)C2)ccc1Nc1ncc(Cl)c(-c2cnn(C(C)C)c2)n1 [Compound 73, (4-((5-chloro-4-(1-isopropyl-1H-pyrazol-4-yl)pyrimidin-2-yl)amino)-3-methoxyphenyl)(3-morpholinoazetidin-1-yl)methanone]
8 | < 50% | < 10% | COc1cc(C(=S)N2CCOCC2)ccc1Nc1ncc(Cl)c(-c2cnn(C(C)C)c2)n1 [Compound 74, (4-((5-chloro-4-(1-isopropyl-1H-pyrazol-4-yl)pyrimidin-2-yl)amino)-3-methoxyphenyl)(morpholino)methanethione]
9 | < 50% | < 30% | COc1cc(C(=O)N2CCC(OC)CC2)ccc1Nc1ncc(Cl)c(-c2cnn(C(C)C)c2)n1 [Compound 76, (4-((5-chloro-4-(1-isopropyl-1H-pyrazol-4-yl)pyrimidin-2-yl)amino)-3-methoxyphenyl)(4-methoxypiperidin-1-yl)methanone]
10 | < 50% | < 30% | COc1cc(C(=O)N2CCC3(CCOCC3)CC2)ccc1Nc1ncc(Cl)c(-c2cnn(C(C)C)c2)n1 [Compound 77, (4-((5-chloro-4-(1-isopropyl-1H-pyrazol-4-yl)pyrimidin-2-yl)amino)-3-methoxyphenyl)(3-oxa-9-azaspiro[5.5]undecan-9-yl)methanone]
11 | < 50% | < 10% | COc1cc(C(=O)N2CCN(C(C)=O)CC2)ccc1Nc1ncc(Cl)c(-c2cnn(C(C)C)c2)n1 [Compound 78, 1-(4-(4-((5-chloro-4-(1-isopropyl-1H-pyrazol-4-yl)pyrimidin-2-yl)amino)-3-methoxybenzoyl)piperazin-1-yl)ethan-1-one]
12 | < 50% | < 10% | COc1cc(C(=O)N2CCC(S(C)(=O)=O)CC2)ccc1Nc1ncc(Cl)c(-c2cnn(C(C)C)c2)n1 [Compound 79, (4-((5-chloro-4-(1-isopropyl-1H-pyrazol-4-yl)pyrimidin-2-yl)amino)-3-methoxyphenyl)(4-(methylsulfonyl)piperidin-1-yl)methanone]
13 | < 50% | < 30% | COc1cc(C(=O)NC2CCOCC2)ccc1Nc1ncc(Cl)c(-c2cnn(C(C)C)c2)n1 [Compound 80, 4-((5-chloro-4-(1-isopropyl-1H-pyrazol-4-yl)pyrimidin-2-yl)amino)-3-methoxy-N-(tetrahydro-2H-pyran-4-yl)benzamide]
14 | < 50% | < 30% | COc1cc(C(=O)NC2CC2)ccc1Nc1ncc(Cl)c(-c2cnn(C(C)C)c2)n1 [Compound 82, 4-((5-chloro-4-(1-isopropyl-1H-pyrazol-4-yl)pyrimidin-2-yl)amino)-N-cyclopropyl-3-methoxybenzamide]
15 | < 50% | < 30% | COc1cc(C(=O)N2CCS(=O)(=O)CC2)ccc1Nc1ncc(Cl)c(-c2cnn(C(C)C)c2)n1 [Compound 84, (4-((5-chloro-4-(1-isopropyl-1H-pyrazol-4-yl)pyrimidin-2-yl)amino)-3-methoxyphenyl)(1,1-dioxidothiomorpholino)methanone]
16 | < 50% | < 30% | COc1cc(C(=O)N2CCN(C)CC2)ccc1Nc1ncc(Cl)c(-c2cnn(C(C)(C)C)c2)n1 [Compound 85, (4-((4-(1-(tert-butyl)-1H-pyrazol-4-yl)-5-chloropyrimidin-2-yl)amino)-3-methoxyphenyl)(4-methylpiperazin-1-yl)methanone]
17 | < 50% | < 30% | COc1cc(C(=O)N2CCN3CCCC3C2)ccc1Nc1ncc(Cl)c(-c2cnn(C(C)C)c2)n1 (stereo not shown) [Compound 87, (4-((5-chloro-4-(1-isopropyl-1H-pyrazol-4-yl)pyrimidin-2-yl)amino)-3-methoxyphenyl)(hexahydropyrrolo[1,2-a]pyrazin-2(1H)-yl)methanone]
18 | < 50% | < 10% | COc1cc(C(=O)N2CCN(C(C)C)CC2)ccc1Nc1ncc(Cl)c(-c2cnn(C(C)(C)C)c2)n1 [Compound 88, (4-((4-(1-(tert-butyl)-1H-pyrazol-4-yl)-5-chloropyrimidin-2-yl)amino)-3-methoxyphenyl)(4-isopropylpiperazin-1-yl)methanone]
19 | ≥ 50% | < 30% | COc1cc(C(=O)N2C[C@H]3CC[C@@H](C2)O3)ccc1Nc1ncc(Cl)c(-c2cnn(C(C)C)c2)n1 [Compound 89, ((1R,5S)-8-oxa-3-azabicyclo[3.2.1]octan-3-yl)(4-((5-chloro-4-(1-isopropyl-1H-pyrazol-4-yl)pyrimidin-2-yl)amino)-3-methoxyphenyl)methanone]
20 | ≥ 50% | < 30% | COc1cc(C(=O)N2CC3(COC3)C2)ccc1Nc1ncc(Cl)c(-c2cnn(C(C)C)c2)n1 [Compound 90, (4-((5-chloro-4-(1-isopropyl-1H-pyrazol-4-yl)pyrimidin-2-yl)amino)-3-methoxyphenyl)(2-oxa-6-azaspiro[3.3]heptan-6-yl)methanone]
